Data as given in ChEMBL document CHEMBL1135259, “Azapeptides as inhibitors of the hepatitis C virus NS3 serine protease” (Bioorg Med Chem Lett, 2002).

The compounds below were run against NS3 (Hepatitis C virus) (UniProt A3EZJ3) (assay: Binding affinity against Hepatitis C virus NS3 protease was calculated as Kcat). Conditions: Hepacivirus hominis.
NS3 (Hepatitis C virus), sequence (A3EZJ3 as listed by the source): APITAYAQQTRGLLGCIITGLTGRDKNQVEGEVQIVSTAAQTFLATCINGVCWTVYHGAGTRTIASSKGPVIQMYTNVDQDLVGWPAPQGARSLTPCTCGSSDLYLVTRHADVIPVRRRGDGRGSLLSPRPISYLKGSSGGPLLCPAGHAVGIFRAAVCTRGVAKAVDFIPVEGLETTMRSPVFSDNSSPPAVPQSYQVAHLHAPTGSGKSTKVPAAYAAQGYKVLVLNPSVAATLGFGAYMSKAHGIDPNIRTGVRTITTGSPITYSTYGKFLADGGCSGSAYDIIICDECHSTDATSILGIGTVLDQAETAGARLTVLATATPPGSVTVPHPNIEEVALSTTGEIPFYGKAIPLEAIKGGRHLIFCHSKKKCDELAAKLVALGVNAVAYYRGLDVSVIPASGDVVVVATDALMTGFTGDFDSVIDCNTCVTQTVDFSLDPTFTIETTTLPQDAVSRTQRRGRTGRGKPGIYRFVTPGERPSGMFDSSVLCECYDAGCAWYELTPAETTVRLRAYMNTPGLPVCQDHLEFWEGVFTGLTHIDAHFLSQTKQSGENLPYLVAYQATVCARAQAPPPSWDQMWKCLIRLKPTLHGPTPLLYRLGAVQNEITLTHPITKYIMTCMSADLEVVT

Row | Structure (SMILES) | k cat [min⁻¹]
1 | CCCN(NC(=O)[C@H]1CCCN1C(=O)[C@@H](NC(=O)[C@@H](NC(=O)[C@H](CC(=O)O)NC(=O)[C@H](CCC(=O)O)NC(C)=O)C(C)C)C(C)C)C(=O)Oc1ccc([N+](=O)[O-])cc1 | 0.5
2 | CCCN(NC(=O)[C@H]1CCCN1C(=O)[C@@H](NC(=O)[C@@H](NC(=O)[C@H](CC(=O)O)NC(=O)[C@H](CCC(=O)O)NC(=O)[C@@H](NC(C)=O)[C@@H](C)O)C(C)C)C(C)C)C(=O)Oc1ccc([N+](=O)[O-])cc1 | 0.5
3 | CCCN(NC(=O)[C@H]1CCCN1C(=O)[C@@H](NC(=O)[C@@H](NC(C)=O)C(C)C)C(C)C)C(=O)Oc1ccc([N+](=O)[O-])cc1 | 0.4
4 | CCCC(NC(=O)[C@H]1CCCN1C(=O)[C@@H](NC(=O)[C@@H](NC(=O)[C@H](CC(=O)O)NC(=O)[C@H](CCC(=O)O)NC(=O)[C@@H](NC(=O)[C@H](CC(=O)O)NC(C)=O)[C@@H](C)O)C(C)C)C(C)C)C(=O)Oc1ccc([N+](=O)[O-])cc1 (stereo not given in full) | 100
5 | CCCN(NC(=O)[C@H]1CCCN1C(=O)[C@@H](NC(=O)[C@@H](NC(=O)[C@H](CC(=O)O)NC(C)=O)C(C)C)C(C)C)C(=O)Oc1ccc([N+](=O)[O-])cc1 | 0.5
